Measured values from patent US20250346600A1, “TRICYCLIC DERIVATIVES AND RELATED USES” (MOMA Therapeutics, Inc., priority 2023, published 2025).
Like-named read-outs stand apart in the source and are kept apart here.

What was measured:
[1] = target: Full length WRN protein (aa 2-1432) (Homo sapiens (Human), UniProt Q14191); test: WRN ATPase ADP-Glo biochemical assay, Assay Format B (100 μM ATP); conditions: 0.25 nM WRN, 100 nM C6.18 ssDNA, 60 min preincubation, read-out: ATPase ADPGlo AC50 (uM)- Assay Format B
[2] = test system: HCT116 cells; test: HCT116 (MSI) 7 day viability, CellTiter Glo; assay type: cell-based; conditions: 7 days, read-out: HCT116 (MSI) Viability 7 Day Abs AC50
Protocol: (§1) Compounds were dissolved in DMSO to a concentration of 10 mM. Compounds were then serially diluted in 10 3-fold steps in DMSO using an EVO (Tecan). Plates were then spun down for 1 minute at 1,000 RPM at room temperature.
(§2) The colon carcinoma lines HCT116 (RRID: CVCL_0291) and HT29 (RRID: CVCL_0320) were obtained from ATCC. […] All cells were maintained at 37° C. with 5% CO2 incubator.
(§3) After harvesting, cells were spun down for 5 minutes at 1200 RPM. Cells were resuspended in 10 mL of growth media and counted using Countess (Thermo Fisher). Cell concentrations were adjusted to 50 cells/well for HCT116 and 500 cells/well for HT29. 50 μL of diluted cells were added to compound treated 384 well plates using a 12 channel, 300 uL electronic handheld pipette (Integra). Cell treated plates were placed in 37 C with 5% CO2 incubator for 7 days.
(§4) Afterwards, cells were removed from incubator and equilibrated to room temperature for 15 minutes. 35 uL of CellTiter Glo (Promega #G7573) reagent were added to each well using a 12 channel, 300 uL electronic handheld pipette (Integra). Plates were incubated for 20 minutes at room temperature. Luminescence quantification was performed using Envision (PerkinElmer).
(§5) For data analysis, the assay background signal was determined in wells containing medium, but no cells. Potencies were calculated by linear least squares fit to the four-parameter logistic IC50 equation. The reported IC50 values are the geometrical mean of at least 2 independent replicates.

[3] = test system: HT29 cells; test: HT29 (MSS) 7 day viability, CellTiter Glo; assay type: cell-based; conditions: 7 days, read-out: HT29 (MSS) Viability 7 Day CTGAbs AC50
Protocol: as §1, §2, §3, §4, §5

Chain of Full length WRN protein (aa 2-1432) (Q14191 2-1432): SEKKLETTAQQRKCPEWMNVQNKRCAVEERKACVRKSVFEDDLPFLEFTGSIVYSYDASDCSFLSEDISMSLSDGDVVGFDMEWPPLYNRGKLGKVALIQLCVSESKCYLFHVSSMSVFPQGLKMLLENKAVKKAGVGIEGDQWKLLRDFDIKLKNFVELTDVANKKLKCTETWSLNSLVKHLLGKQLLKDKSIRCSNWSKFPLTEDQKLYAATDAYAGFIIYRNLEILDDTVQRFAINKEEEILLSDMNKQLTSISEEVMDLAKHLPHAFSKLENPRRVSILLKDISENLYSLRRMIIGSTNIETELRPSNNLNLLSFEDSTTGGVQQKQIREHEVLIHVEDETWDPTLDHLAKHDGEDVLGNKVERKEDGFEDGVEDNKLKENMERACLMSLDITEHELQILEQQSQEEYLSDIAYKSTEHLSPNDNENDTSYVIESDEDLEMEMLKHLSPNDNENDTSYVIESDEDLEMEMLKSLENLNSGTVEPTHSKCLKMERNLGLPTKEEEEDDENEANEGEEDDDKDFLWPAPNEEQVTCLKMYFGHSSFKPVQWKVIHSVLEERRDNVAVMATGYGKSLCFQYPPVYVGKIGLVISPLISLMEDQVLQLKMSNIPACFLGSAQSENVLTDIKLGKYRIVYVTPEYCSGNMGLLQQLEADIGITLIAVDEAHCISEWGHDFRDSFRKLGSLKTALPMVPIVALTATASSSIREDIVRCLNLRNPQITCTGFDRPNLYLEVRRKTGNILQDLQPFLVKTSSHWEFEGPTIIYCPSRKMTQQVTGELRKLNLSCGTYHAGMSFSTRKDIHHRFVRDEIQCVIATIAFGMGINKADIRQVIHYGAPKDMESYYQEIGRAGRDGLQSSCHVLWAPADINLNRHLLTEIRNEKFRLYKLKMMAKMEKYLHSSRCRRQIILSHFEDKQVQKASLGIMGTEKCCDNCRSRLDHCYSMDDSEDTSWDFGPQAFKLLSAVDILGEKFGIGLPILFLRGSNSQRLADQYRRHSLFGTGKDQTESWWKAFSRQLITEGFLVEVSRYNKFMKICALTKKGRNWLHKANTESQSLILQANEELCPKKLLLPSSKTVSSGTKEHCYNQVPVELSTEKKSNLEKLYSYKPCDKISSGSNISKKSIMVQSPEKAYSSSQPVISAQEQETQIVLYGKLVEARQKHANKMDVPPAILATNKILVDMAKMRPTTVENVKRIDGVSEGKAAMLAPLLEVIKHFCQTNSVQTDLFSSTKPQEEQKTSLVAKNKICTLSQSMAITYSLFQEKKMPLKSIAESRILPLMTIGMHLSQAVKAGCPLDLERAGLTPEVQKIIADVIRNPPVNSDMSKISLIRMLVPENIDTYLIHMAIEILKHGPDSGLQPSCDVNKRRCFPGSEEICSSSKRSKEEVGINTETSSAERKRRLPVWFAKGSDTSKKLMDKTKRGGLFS

AC50 [1] [µM]	SMILES	AC50 ([2]; Homo sapiens, HCT-116, 168 h) [nM]	AC50 ([3]; Homo sapiens, HT-29, 168 h) [nM]	AC50 [2] [nM]	AC50 [3] [nM]
0.005 to 0.015	C=CC(=O)N1CCc2nn(-c3ccc(C4CC4)cc3)c3c2C(C1)N(C(=O)c1cnc(OC(F)F)cc1N)CC3 (stereo not drawn) [Compound 177, 1-(5-(4-amino-6-(difluoromethoxy)nicotinoyl)-2-(4-cyclopropylphenyl)-2,3,4,5,5a,6,8,9-octahydro-7H-1,2,5,7-tetraazabenzo[cd]azulen-7-yl)prop-2-en-1-one]	1 to 100	> 3000		
0.015 to 0.055	C=CC(=O)N1CCc2nn(-c3ccc(C4CCC4)cc3O)c3c2C(C1)N(C(=O)c1cc(F)c(C(F)(F)F)nc1N)CC3 (stereo not drawn) [Compound 165, 1-(5-(2-amino-5-fluoro-6-(trifluoromethyl)nicotinoyl)-2-(4-cyclobutyl-2-hydroxyphenyl)-2,3,4,5,5a,6,8,9-octahydro-7H-1,2,5,7-tetraazabenzo[cd]azulen-7-yl)prop-2-en-1-one]	1 to 100	> 3000		
0.015 to 0.055	C=CC(=O)N1CCc2nn(-c3ccc(CC(F)(F)F)cc3O)c3c2C(C1)N(C(=O)c1cnc(C(F)(F)F)cc1N)CC3 (stereo not drawn) [Compound 180, 1-(5-(4-amino-6-(trifluoromethyl)nicotinoyl)-2-(2-hydroxy-4-(2,2,2-trifluoroethyl)phenyl)-2,3,4,5,5a,6,8,9-octahydro-7H-1,2,5,7-tetraazabenzo[cd]azulen-7-yl)prop-2-en-1-one]	1 to 100	> 3000		
0.0015 to 0.005	C=CC(=O)N1CCc2nn(-c3ccc(C4CC4)c(F)c3O)c3c2C(C1)N(C(=O)c1cnc(Br)cc1N)CC3 (stereo not drawn) [Compound 215, 1-(5-(4-amino-6-bromonicotinoyl)-2-(4-cyclopropyl-3-fluoro-2-hydroxyphenyl)-2,3,4,5,5a,6,8,9-octahydro-7H-1,2,5,7-tetraazabenzo[cd]azulen-7-yl)prop-2-en-1-one]	1 to 100	> 3000		
0.005 to 0.015	C=CC(=O)N1CCc2nn(-c3ccc(C4CC4)cc3O)c3c2C(C1)N(C(=O)c1cnc(Br)cc1N)CC3 (stereo not drawn) [Compound 191, 1-(5-(4-amino-6-bromonicotinoyl)-2-(4-cyclopropyl-2-hydroxyphenyl)-2,3,4,5,5a,6,8,9-octahydro-7H-1,2,5,7-tetraazabenzo[cd]azulen-7-yl)prop-2-en-1-one]	1 to 100	> 3000		
0.015 to 0.055	C=CC(=O)N1CCc2nn(-c3ccc(C4CCC4)cc3C#N)c3c2C(C1)N(C(=O)c1cnc(C(F)(F)F)cc1N)CC3 (stereo not drawn) [Compound 171, 2-(7-acryloyl-5-(4-amino-6-(trifluoromethyl)nicotinoyl)-3,4,5,5a,6,7,8,9-octahydro-2H-1,2,5,7-tetraazabenzo[cd]azulen-2-yl)-5-cyclobutylbenzonitrile]	1 to 100	> 3000		
0.005 to 0.015	C=CC(=O)N1CCc2nn(-c3ccc(C4CC4)cc3O)c3c2C(C1)N(C(=O)c1ccc(C(F)(F)F)nc1N)CC3 (stereo not drawn) [Compound 172, 1-(5-(2-amino-6-(trifluoromethyl)nicotinoyl)-2-(4-cyclopropyl-2-hydroxyphenyl)-2,3,4,5,5a,6,8,9-octahydro-7H-1,2,5,7-tetraazabenzo[cd]azulen-7-yl)prop-2-en-1-one]	1 to 100	> 3000		
0.005 to 0.015	C=CC(=O)N1CCc2nn(-c3cc(F)c(C4CC4)cc3O)c3c2C(C1)N(C(=O)c1cnc(C(C)(F)F)c(F)c1N)CC3 (stereo not drawn) [Compound 253, 1-[7-[4-amino-6-(1,1-difluoroethyl)-5-fluoro-pyridine-3-carbonyl]-3-(4-cyclopropyl-5-fluoro-2-hydroxy-phenyl)-2,3,7,10-tetrazatricyclo[6.4.1.04,1 3]trideca-1,4(13)-dien-10-yl]prop-2-en-1-one]	1 to 100	> 3000		
0.005 to 0.015	C=CC(=O)N1CCc2nn(-c3ccc(C4CCC4)cc3O)c3c2C(C1)N(C(=O)c1ccc(Br)c2[nH]c(OC(F)F)nc12)CC3 (stereo not drawn) [Compound 88, 1-(5-(7-bromo-2-(difluoromethoxy)-1H-benzo[d]imidazole-4-carbonyl)-2-(4-cyclobutyl-2-hydroxyphenyl)-2,3,4,5,5a,6,8,9-octahydro-7H-1,2,5,7-tetraazabenzo[cd]azulen-7-yl)prop-2-en-1-one]	1 to 100	> 3000		
0.005 to 0.015	C=CC(=O)N1CCc2nn(-c3ccc(C4CC4)cc3O)c3c2C(C1)N(C(=O)c1ccc(C(F)(F)F)nc1)CC3 (stereo not drawn) [Compound 213, 1-(2-(4-cyclopropyl-2-hydroxyphenyl)-5-(6-(trifluoromethyl)nicotinoyl)-2,3,4,5,5a,6,8,9-octahydro-7H-1,2,5,7-tetraazabenzo[cd]azulen-7-yl)prop-2-en-1-one]	1 to 100	> 3000		
0.005 to 0.015	C=CC(=O)N1CCc2nn(-c3ccc(C4CC4)cc3O)c3c2C(C1C)N(C(=O)c1cnc(C(F)(F)F)cc1N)CC3 (stereo not drawn) [Compound 221, 1-(5-(4-amino-6-(trifluoromethyl)nicotinoyl)-2-(4-cyclopropyl-2-hydroxyphenyl)-6-methyl-2,3,4,5,5a,6,8,9-octahydro-7H-1,2,5,7-tetraazabenzo[cd]azulen-7-yl)prop-2-en-1-one]	1 to 100	> 3000		

Second part, the compound before the results:

SMILES	AC50 [1] [µM]	AC50 ([2]; Homo sapiens, HCT-116, 168 h) [nM]	AC50 ([3]; Homo sapiens, HT-29, 168 h) [nM]	AC50 [2] [nM]	AC50 [3] [nM]
C=CC(=O)N1CCc2nn(-c3ccc(C4CC4)cc3O)c3c2C(C1)N(C(=O)c1cc(C#N)c(C(F)(F)F)cc1N)CC3 (stereo not drawn) [Compound 207, 5-(7-acryloyl-2-(4-cyclopropyl-2-hydroxyphenyl)-3,4,5,5a,6,7,8,9-octahydro-2H-1,2,5,7-tetraazabenzo[cd]azulene-5-carbonyl)-4-amino-2-(trifluoromethyl) benzonitrile]	0.005 to 0.015	1 to 100	> 3000		
C=CC(=O)N1CC(OC2CN(C(C)=O)C2)c2nn(-c3ccc(C4CCC4)cc3)c3c2C(C1)N(C(=O)c1ccc(C(F)(F)F)nc1)CC3 (stereo not drawn) [Compound 205, 1-(9-((1-acetylazetidin-3-yl)oxy)-2-(4-cyclobutylphenyl)-5-(6-(trifluoromethyl)nicotinoyl)-2,3,4,5,5a,6,8,9-octahydro-7H-1,2,5,7-tetraazabenzo[cd]azulen-7-yl)prop-2-en-1-one]	0.005 to 0.015	1 to 100	> 3000		
C=CC(=O)N1CCc2nc(-c3ccc(C4CCC4)cc3)n3c2C(C1)N(C(=O)c1ccc(Br)c2[nH]c(C(F)F)nc12)CC3 (stereo not drawn) [Compound 237, 1-(5-(7-bromo-2-(difluoromethyl)-1H-benzo[d]imidazole-4-carbonyl)-2-(4-cyclobutylphenyl)-4,5,5a,6,8,9-hexahydro-1,2a,5,7-tetraazabenzo[cd]azulen-7(3H)-yl)prop-2-en-1-one]	0.0015 to 0.005	1 to 100	> 3000		
C=CC(=O)N1CCc2nn(-c3ccc(C4CC4)cc3)c3c2C(C1)N(C(=O)c1c(N)cc(Br)c2[nH]cnc12)CC3 (stereo not drawn) [Compound 188, 1-(5-(5-amino-7-bromo-1H-benzo[d]imidazole-4-carbonyl)-2-(4-cyclopropylphenyl)-2,3,4,5,5a,6,8,9-octahydro-7H-1,2,5,7-tetraazabenzo[cd]azulen-7-yl)prop-2-en-1-one]	0.0015 to 0.005	1 to 100	> 3000		
C=CC(=O)N1CCc2nn(-c3ccc(C4CCC4)cc3)c3c2C(C1)N(C(=O)c1cnc2c(C(F)(F)F)nn(C)c2c1)CC3 (stereo not drawn) [Compound 185, 1-(2-(4-cyclobutylphenyl)-5-(1-methyl-3-(trifluoromethyl)-1H-pyrazolo[4,3-b]pyridine-6-carbonyl)-2,3,4,5,5a,6,8,9-octahydro-7H-1,2,5,7-tetraazabenzo[cd]azulen-7-yl)prop-2-en-1-one]	0.015 to 0.055	1 to 100	1000 to 3000		
C=CC(=O)N1CCc2nn(C34CC(C5CCCC5)(C3)C4)c3c2C(C1)N(C(=O)c1cnc(C(F)(F)F)cc1N)CC3 (stereo not drawn) [Compound 219, 1-(5-(4-amino-6-(trifluoromethyl)nicotinoyl)-2-(3-cyclopentylbicyclo[1.1.1]pentan-1-yl)-2,3,4,5,5a,6,8,9-octahydro-7H-1,2,5,7-tetraazabenzo[cd]azulen-7-yl)prop-2-en-1-one]	0.005 to 0.015			1 to 100	> 3000
C=CC(=O)N1CC(OC2(COC)CC2)c2nn(-c3ccc(C4CC4)cc3)c3c2C(C1)N(C(=O)c1ccc(C(F)(F)F)nc1)CC3 (stereo not drawn) [Compound 235, 1-(2-(4-cyclopropylphenyl)-9-(1-(methoxymethyl)cyclopropoxy)-5-(6-(trifluoromethyl)nicotinoyl)-2,3,4,5,5a,6,8,9-octahydro-7H-1,2,5,7-tetraazabenzo[cd]azulen-7-yl)prop-2-en-1-one]	> 0.055	100 to 250	> 3000		
